Measured values reported in PubChem BioAssay AID720601 (Broad Institute, 2013).
Records with an inconclusive call do not appear. Active and inactive are the calls of the source.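 How the source made its calls: active means compounds lowering the viability dye signal with a fitted AC50 within twice the top dose in all three time points; inconclusive means time points disagree in their calls; inactive means inactive at every time point, including signal rises.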

Key:
[1] = test system: C2C12 mouse myoblast viability, Alamar Blue, 8/24/48 h; assay: cytotoxicity in immortalized mouse myoblasts – cell-based, Alamar Blue fluorescence, 8/24/48 h, dry powder, cytotoxicity control for HRAS target identification, dose response (AID 720601)
[2] = as above; details: C2C12 mouse myoblast viability, Alamar Blue, 8/24/48 h, at 35 µM, stronger effect = lower value

Compound | AC50 [1] | activity ([2]; 8 h viability change) | activity ([2]; 24 h viability change)
CCC(=O)N(c1ccc(OC)c(Cl)c1)C(C(=O)NCCc1ccccc1)c1cccs1 (stereo not given) | > 70 µM (inactive) | 0.483% | -13.2%
Cc1onc(C(=O)N2CCN(C(c3ccncc3)c3ccncc3)CC2)c1[N+](=O)[O-] |  | -0.518% | -6.22%
